# Experimental data from patent publication US7851474B2, “Dipiperazinyl ketones and related analogues” (Neurogen Corporation, priority 2005, dated 2010).
# pKi: −log10 of the molar value.
# Target: T1, chimeric human H3 receptor (Homo sapiens, UniProt Q9Y5N1, E19D)
# T1 construct: made in house; host or cells: Sf9 insect cells (baculovirus infection); P2 membrane preparation
# Experiment: Chimeric human H3 receptor GTP binding assay (agonist-stimulated GTP-gamma35S binding, Example 7)
# Format: biochemical
# Conditions: "*" in Ki of Table II; assay of Example 7; read-out: Ki
# In short: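 Sf9 membranes co-expressing the chimeric receptor and heterotrimeric G-protein subunits, 35 μg protein per tube, in pH 7.4 Tris buffer with 10 μM GDP. Test compounds at 10^−10 to 10^−6 M with 1 μM histamine, 60 min at room temperature. Filter-bound GTP-gamma^35S read by scintillation; IC50 from non-linear regression of dose-response curves.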
# T1 sequence (Q9Y5N1 with tags, fused parts or gaps E19D): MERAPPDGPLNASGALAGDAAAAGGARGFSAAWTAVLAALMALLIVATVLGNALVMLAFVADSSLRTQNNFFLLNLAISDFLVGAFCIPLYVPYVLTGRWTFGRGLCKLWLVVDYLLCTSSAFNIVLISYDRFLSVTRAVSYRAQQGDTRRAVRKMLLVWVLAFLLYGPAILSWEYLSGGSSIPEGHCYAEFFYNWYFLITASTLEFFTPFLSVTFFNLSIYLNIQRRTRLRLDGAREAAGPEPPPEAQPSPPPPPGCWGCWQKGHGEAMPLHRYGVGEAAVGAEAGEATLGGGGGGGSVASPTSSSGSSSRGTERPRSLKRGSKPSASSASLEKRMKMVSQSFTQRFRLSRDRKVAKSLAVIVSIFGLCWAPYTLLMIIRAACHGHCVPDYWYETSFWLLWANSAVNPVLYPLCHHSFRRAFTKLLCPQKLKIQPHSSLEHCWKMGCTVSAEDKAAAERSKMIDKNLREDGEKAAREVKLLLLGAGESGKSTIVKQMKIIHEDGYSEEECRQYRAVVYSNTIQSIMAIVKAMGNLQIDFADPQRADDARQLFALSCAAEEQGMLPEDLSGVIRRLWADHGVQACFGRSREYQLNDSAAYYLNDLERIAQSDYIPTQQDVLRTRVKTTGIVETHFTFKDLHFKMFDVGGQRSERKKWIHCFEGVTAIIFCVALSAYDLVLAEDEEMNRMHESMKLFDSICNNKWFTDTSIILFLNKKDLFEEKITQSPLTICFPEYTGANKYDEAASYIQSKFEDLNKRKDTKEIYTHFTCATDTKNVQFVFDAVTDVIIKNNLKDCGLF
row,pKi,Structure (SMILES)
1,> 6.00,"O=C(Cc1c(Cl)cccc1Cl)N1CCN(CC(=O)N2CCN(C3CCC3)CC2)CC1 [Compound 511, 1-cyclobutyl-4-({4-[(2,6-dichlorophenyl)acetyl]piperazin-1-yl}acetyl)piperazine]"
2,> 6.00,"CC(=O)N1CCN(CC(=O)N2CCN(C3CCCC3)CC2)CC1 [Compound 485, 1-acetyl-4-[2-(4-cyclopentylpiperazin-1-yl)-2-oxoethyl]piperazine]"
3,> 6.00,CCC(C)N1CCN(C(=O)CN2CCC(N3CCCCC3)CC2)CC1 (stereo not shown) [Compound 447]
4,> 6.00,"O=C(CN1CCN(c2ccc(-c3ccc(Cl)c(C(F)(F)F)c3)cc2)CC1)N1CCN(C2CCC2)CC1 [Compound 463, 1-[4′-chloro-3′-(trifluoromethyl)biphenyl-4-yl]-4-[2-(4-cyclobutylpiperazin-1-yl)-2-oxoethyl]piperazine]"
5,> 6.00,"CC(C)N1CCN(C(=O)CN2CCN(c3ccc(F)c(C(F)(F)F)c3)CC2)CC1 [Compound 468, 1-[4-fluoro-3-(trifluoromethyl)phenyl]-4-[2-(4-isopropylpiperazin-1-yl)-2-oxoethyl]piperazine]"
6,> 6.00,"CC(C)N1CCN(C(=O)CN2CCN(c3ccc(C(F)(F)F)cn3)CC2C)CC1 (stereo not shown) [Compound 445, 1-[2-(4-isopropylpiperazin-1-yl)-2-oxoethyl]-2-methyl-4-[5-(trifluoromethyl)pyridin-2-yl]piperazine]"

# Same assay, conditions: Table II "Ki", symbol "*": Ki in the assay of Example 7; read-out: Ki
row,pKi,Structure (SMILES)
1,> 6.00,"O=C(CN1CCN(c2cnc(-c3ccc(F)c(Cl)c3)cn2)CC1)N1CCN(C2CCC2)CC1 [Compound 899, 2-(3-chloro-4-fluorophenyl)-5-{4-[2-(4-cyclobutylpiperazin-1-yl)-2-oxoethyl)piperazin-1-yl}pyrazine]"
2,> 6.00,"CCCc1ccc(-c2cnc(N3CCN(CC(=O)N4CCN(C5CCC5)CC4)CC3)cn2)cc1 [Compound 931, 2-{4-[2-(4-cyclobutylpiperazin-1-yl)-2-oxoethyl]piperazin-1-yl}-5-(4-propylphenyl)pyrazine]"
3,> 6.00,"CCC(C)N1CCN(C(=O)CN2CCN(c3cccc(C)c3)CC2)CC1 (stereo not shown) [Compound 876, 1-sec-butyl-4-{[4-(3-methylphenyl)piperazin-1-yl]acetyl}piperazine]"

# Further lines, the molecule ahead of its results:
row,Structure (SMILES),pKi
1,"COc1ccc(N2CCN(CC(=O)N3CCN(C4CCCC4)CC3)CC2)cc1 [Compound 839, 1-cyclopentyl-4-{[4-(4-methoxyphenyl)piperazin-1-yl]acetyl}piperazine]",> 6.00
2,"O=C(CN1CCN(c2ccc(-c3ccc(F)cc3)cc2)CC1)N1CCN(C2CCC2)CC1 [Compound 774, 1-cyclobutyl-4-{[4-(4′-fluorobiphenyl-4-yl)piperazin-1-yl]acetyl}piperazine]",> 6.00
3,"CCC(C)N1CCN(C(=O)CN2CCN(c3ccc(F)c(C(F)(F)F)c3)CC2)CC1 (stereo not shown) [Compound 856, 1-sec-butyl-4-({4-[4-fluoro-3-(trifluoromethyl)phenyl]piperazin-1-yl}acetyl)piperazine]",> 6.00
4,"CCC(C)N1CCN(C(=O)CN2CCN(c3ccc(F)cc3F)CC2)CC1 (stereo not shown) [Compound 861, 1-sec-butyl-4-{[4-(2,4-difluorophenyl)piperazin-1-yl]acetyl}piperazine]",> 6.00

# Same assay, conditions: Table II, "*" in Ki; assay of Example 7; read-out: Ki
row,pKi,Structure (SMILES)
1,> 6.00,"CC(C)c1ccccc1-c1ccc(N2CCN(CC(=O)N3CCN(C4CCC4)CC3)CC2)cc1 [Compound 709, 1-cyclobutyl-4-{[4-(2′-isopropylbiphenyl-4-yl)piperazin-1-yl]acetyl}piperazine]"
2,> 6.00,"O=C(CN1CCN(c2ccc(C(=O)N3CCCC3)cc2)CC1)N1CCN(C2CCC2)CC1 [Compound 603, 1-cyclobutyl-4-({4-[4-(pyrrolidin-1-ylcarbonyl)phenyl]piperazin-1-yl}acetyl)piperazine]"
3,> 6.00,"COC[C@@H]1CCCN1C(=O)c1ccc(N2CCN(CC(=O)N3CCN(C4CCC4)CC3)CC2)cc1 [Compound 768, 1-cyclobutyl-4-{[4-(4-{[(2S)-2-(methoxymethyl)pyrrolidin-1-yl]carbonyl}phenyl)piperazin-1-yl]acetyl}piperazine]"
4,> 6.00,"CC1CC(C)CN(C(=O)c2ccc(N3CCN(CC(=O)N4CCN(C5CCC5)CC4)CC3)cc2)C1 (stereo not shown) [Compound 646, 1-cyclobutyl-4-[(4-{4-[(3,5-dimethylpiperidin-1-yl)carbonyl]phenyl}piperazin-1-yl)acetyl]piperazine]"
5,> 6.00,"O=C(CN1CCC(F)(c2ccccc2)CC1)N1CCN(C2CCC2)CC1 [Compound 654, 1-cyclobutyl-4-[(4-fluoro-4-phenylpiperidin-1-yl)acetyl]piperazine]"
6,> 6.00,"Cc1ccc(-c2ccc(N3CCN(CC(=O)N4CCN(C5CCC5)CC4)CC3)cc2)cc1F [Compound 751, 1-cyclobutyl-4-{[4-(3′-fluoro-4′-methylbiphenyl-4-yl)piperazin-1-yl]acetyl}piperazine]"

# Same assay, conditions: Table II; assay of Example 7; "*" in Ki; read-out: Ki
row,pKi,Structure (SMILES)
1,> 6.00,"CN(C)c1ccc(-c2ccc(N3CCN(CC(=O)N4CCN(C5CCC5)CC4)CC3)nn2)cc1 [Compound 1099, 4-(6-{4-[2-(4-cyclobutylpiperazin-1-yl)-2-oxoethyl]piperazin-1-yl}pyndazin-3-yl)-N,N-dimethylaniline]"
2,> 6.00,"COc1ccc(N2CCN(CC(=O)N3CCN(C4CCC4)CC3)CC2)nn1 [Compound 999, 3-{4-[2-(4-cyclobutylpiperazin-1-yl)-2-oxoethyl]piperazin-1-yl}-6-methoxypyridazine]"
3,> 6.00,"CCOc1cccc(-c2ccc(N3CCN(CC(=O)N4CCN(C5CCC5)CC4)CC3)nn2)c1 [Compound 1022, 3-{4-[2-(4-cyclobutylpiperazin-1-yl)-2-oxoethyl]piperazin-1-yl}-6-(3-ethoxyphenyl)pyridazine]"
4,> 6.00,"O=C(CN1CCN(c2ccc(-c3ccc(OC(F)(F)F)cc3)nn2)CC1)N1CCN(C2CCC2)CC1 [Compound 1021, 3-{4-[2-(4-cyclobutylpiperazin-1-yl)-2-oxoethyl]piperazin-1-yl}-6-[4-(trifluoromethoxy)phenyl] pyridazine]"
5,> 6.00,"CCOc1ccc(-c2ccc(N3CCN(CC(=O)N4CCN(C5CCC5)CC4)CC3)nn2)cc1 [Compound 1034, 3-{4-[2-(4-cyclobutylpiperazin-1-yl)-2-oxoethyl]piperazin-1-yl}-6-(4-ethoxyphenyl)pyridazine]"
6,> 6.00,"Cc1ccc(-c2ccc(N3CCN(CC(=O)N4CCN(C5CCC5)CC4)CC3)nn2)cc1 [Compound 1012, 3-{4-[2-(4-cyclobutylpiperazin-1-yl)-2-oxoethyl]piperazin-1-yl}-6-(4-methylphenyl)pyridazine]"
7,> 6.00,"COc1cc(F)c(-c2cnc(N3CCN(CC(=O)N4CCN(C5CCC5)CC4)CC3)cn2)cc1F [Compound 940, 2-{4-[2-(4-cyclobutylpiperazin-1-yl)-2-oxoethyl]piperazin-1-yl}-5-(2,5-difluoro-4-methoxyphenyl)pyrazine]"
8,> 6.00,"O=C(CN1CCN(c2cnc(-c3ccc4c(c3)OCCO4)cn2)CC1)N1CCN(C2CCC2)CC1 [Compound 947, 2-{4-[2-(4-cyclobutylpiperazin-1-yl)-2-oxoethyl]piperazin-1-yl}-5-(2,3-dihydro-1,4-benzodioxin-6-yl)pyrazine]"
9,> 6.00,"N#Cc1cccc(-c2cnc(N3CCN(CC(=O)N4CCN(C5CCC5)CC4)CC3)cn2)c1 [Compound 994, 3-(5-{4-[2-(4-cyclobutylpiperazin-1-yl)-2-oxoethyl]piperazin-1-yl}pyrazin-2-yl)benzonitrile]"

# Same assay, conditions: assay of Example 7; "*" in Ki of Table II; read-out: Ki
row,pKi,Structure (SMILES)
1,> 6.00,"O=C(NC1CCN(CC(=O)N2CCN(C3CCC3)CC2)C1)c1ccc(-c2ccccc2)cc1 (stereo not shown) [Compound 1254, N-{1-[2-(4-cyclobutylpiperazin-1-yl)-2-oxoethyl]pyrrolidin-3-yl}biphenyl-4-carboxamide]"
2,> 6.00,"Cc1ccc(C(=O)NC2CCN(CC(=O)N3CCN(C4CCC4)CC3)C2)cc1C (stereo not shown) [Compound 1232, N-{1-[2-(4-cyclobutylpiperazin-1-yl)-2-oxoethyl]pyrrolidin-3-yl}-3,4-dimethylbenzamide]"
3,> 6.00,"Cc1cc(C)cc(C(=O)NC2CCN(CC(=O)N3CCN(C4CCC4)CC3)C2)c1 (stereo not shown) [Compound 1229, N-{1-[2-(4-cyclobutylpiperazin-1-yl)-2-oxoethyl]pyrrolidin-3-yl}-3,5-dimethylbenzamide]"
4,> 6.00,"CC(C)N(C)C(=O)c1ccc(N2CCN(CC(=O)N3CCN(C4CCC4)CC3)CC2)nc1 [Compound 1169, 6-{4-[2-(4-cyclobutylpiperazin-1-yl)-2-oxoethyl]piperazin-1-yl}-N-isopropyl-N-methylnicotinamide]"

# Same assay, conditions: assay of Example 7; symbol * in column headed Ki of Table II; read-out: Ki
row,pKi,Structure (SMILES)
1,> 6.00,"O=C(Cc1ccccc1Br)N1CCN(CC(=O)N2CCN(C3CCC3)CC2)CC1 [Compound 380, 1-[(2-bromophenyl)acetyl]-4-[2-(4-cyclobutylpiperazin-1-yl)-2-oxoethyl]piperazine]"
2,> 6.00,"O=C(CN1CCN(c2ccc(Br)cc2)CC1)N1CCN(C2CCCCC2)CC1 [Compound 338, 1-(4-bromophenyl)-4-[2-(4-cyclohexylpiperazin-1-yl)-2-oxoethyl]piperazine]"
3,> 6.00,"COc1cc(N2CCN(CC(=O)N3CCN(C4CCCC4)CC3)CC2)ccc1Cl [Compound 346, 1-(4-chloro-3-methoxyphenyl)-4-[2-(4-cyclopentylpiperazin-1-yl)-2-oxoethyl]piperazine]"
4,> 6.00,"CC(=O)c1ccc(N2CCN(CC(=O)N3CCN(C4CCC4)CC3)CC2)nc1 [Compound 371, 1-(6-{4-[2-(4-cyclobutylpiperazin-1-yl)-2-oxoethyl]piperazin-1-yl}pyridin-3-yl)ethanone]"
5,> 6.00,"CC(C)N1CCN(C(=O)CN2CCN(c3ccc(F)cc3F)CC2)CC1 [Compound 264, 1-(2,4-difluorophenyl)-4-[2-(4-isopropylpiperazin-1-yl)-2-oxoethyl]piperazine]"
